Source: ChEMBL document CHEMBL1140849, “Selective small molecule inhibitors of the potential breast cancer marker, human arylamine N-acetyltransferase 1, and its murine homologue, mouse arylamine N-acetyltransferase 2” (Bioorg Med Chem, 2009)
Each block holds one molecule with its values, some of them ahead of it. The source made the active and inactive calls. No cut-off for these calls is given here.

Legend:
[1] = target: T1, Arylamine N-acetyltransferase (Pseudomonas aeruginosa (strain ATCC 15692 / PAO1 / 1C / PRS 101 / LMG12228), UniProt Q9HUY3); conditions: read-out: INH
T1 sequence (Q9HUY3 whole entry): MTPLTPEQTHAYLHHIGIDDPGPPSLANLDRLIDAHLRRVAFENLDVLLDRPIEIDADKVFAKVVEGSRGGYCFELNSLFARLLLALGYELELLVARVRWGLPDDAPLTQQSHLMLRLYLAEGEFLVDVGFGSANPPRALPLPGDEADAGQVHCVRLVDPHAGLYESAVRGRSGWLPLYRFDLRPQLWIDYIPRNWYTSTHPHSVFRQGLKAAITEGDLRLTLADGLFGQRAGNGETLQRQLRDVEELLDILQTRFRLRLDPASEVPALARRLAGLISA
Description: Inhibition of Pseudomonas aeruginosa recombinant NAT using isoniazid as substrate at 30 uM

[2] = target: T2, Arylamine N-acetyltransferase 2 (Mus musculus, UniProt P50295); assay: Inhibition of mouse recombinant NAT2 assessed as hydrolysis of acetyl coA using PABA as substrate by Ellman's method
T2 sequence (P50295 whole entry): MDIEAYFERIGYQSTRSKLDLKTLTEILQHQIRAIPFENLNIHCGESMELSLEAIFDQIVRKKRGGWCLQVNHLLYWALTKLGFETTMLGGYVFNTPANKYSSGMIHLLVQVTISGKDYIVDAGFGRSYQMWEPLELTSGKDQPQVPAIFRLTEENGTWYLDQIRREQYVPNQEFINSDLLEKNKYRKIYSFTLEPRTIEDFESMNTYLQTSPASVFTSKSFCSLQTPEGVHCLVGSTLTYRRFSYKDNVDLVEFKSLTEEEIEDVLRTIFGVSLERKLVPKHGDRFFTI

[3] = target: T3, Arylamine N-acetyltransferase 1 (Homo sapiens, UniProt P18440); assay: Inhibition of human recombinant NAT1 assessed as hydrolysis of acetyl coA using PABA as substrate by Ellman's method
T3 sequence (P18440 whole entry): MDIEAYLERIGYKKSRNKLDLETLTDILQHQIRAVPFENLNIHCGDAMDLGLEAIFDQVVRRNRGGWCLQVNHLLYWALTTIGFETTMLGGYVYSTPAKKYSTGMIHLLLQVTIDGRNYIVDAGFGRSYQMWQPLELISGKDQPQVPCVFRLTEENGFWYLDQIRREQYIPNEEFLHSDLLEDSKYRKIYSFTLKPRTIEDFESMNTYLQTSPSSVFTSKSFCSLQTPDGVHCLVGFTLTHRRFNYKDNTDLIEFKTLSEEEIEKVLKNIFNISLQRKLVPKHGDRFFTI

Mycobacterium marinum [4] = assay: Inhibition of Mycobacterium marinum recombinant NAT using isoniazid as substrate at 30 uM
[5] = Cytotoxicity against mouse macrophage at 10 ug/ml after 72 hrs by trypan blue exclusion method; type: cell-based
[6] = target: T4, Arylamine N-acetyltransferase 2 (NAT2) (Homo sapiens, UniProt P11245); assay: Inhibition of human recombinant NAT2 using 5-aminosalicylic acid as substrate at 30 uM; conditions: recombinant NAT2, probe 5-aminosalicylic acid
T4 sequence (P11245 whole entry): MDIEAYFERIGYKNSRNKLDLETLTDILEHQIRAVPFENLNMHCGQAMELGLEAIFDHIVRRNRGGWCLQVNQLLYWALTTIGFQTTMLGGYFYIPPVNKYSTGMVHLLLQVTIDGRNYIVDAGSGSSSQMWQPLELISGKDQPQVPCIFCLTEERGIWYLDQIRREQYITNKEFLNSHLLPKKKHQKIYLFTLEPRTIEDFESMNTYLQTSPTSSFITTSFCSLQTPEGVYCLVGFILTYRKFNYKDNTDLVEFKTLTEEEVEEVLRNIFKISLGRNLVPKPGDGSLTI

[7] = target: T1, Arylamine N-acetyltransferase; assay: Inhibition of Pseudomonas aeruginosa recombinant NAT using 5-aminosalicylic acid as substrate at 30 uM; conditions: read-out: INH
[8] = target: T5, Arylamine N-acetyltransferase 2 (NAT2) (Mus musculus, UniProt P50295); assay: Inhibition of mouse recombinant NAT2 using 5-aminosalicylic acid as substrate at 30 uM; conditions: recombinant NAT2, probe 5-aminosalicylic acid
T5 sequence (P50295 whole entry): T2 sequence (P50295 whole entry)

ZR75 = assay: Inhibition of NAT in human ZR75 cell lysate assessed as acetylation of aryl amine using PABA as substrate at 30 uM; type: cell-free
[9] = target: T2, Arylamine N-acetyltransferase 2; assay: Inhibition of mouse recombinant NAT2 using PABA as substrate at 30 uM
Mycobacterium marinum [10] = conditions: 30 uM
Description: Inhibition of Mycobacterium marinum recombinant NAT using 5-aminosalicylic acid as substrate at 30 uM

Compound: Cc1ccccc1/C=C1\SC(=S)NC1=O
inhibition at 30 µM [1]: < 40%

Compound: CCC/C=C1\SC(=S)NC1=O
IC50 [2]: 7.7 µM

Compound: O=C1NC(=S)S/C1=C\c1ccccc1-c1ccccc1
IC50 [2]: 16.5 µM

Compound: O=C1NC(=S)S/C1=C\c1ccc(F)cc1
IC50 [3]: 12.9 µM
inhibition at 30 µM [1]: < 40%
inhibition (Mycobacterium marinum [4]): < 40%

Compound: COc1ccccc1/C=C1\SC(=S)NC1=O
IC50 [3]: 17.6 µM
inhibition at 30 µM [1]: < 40%
inhibition (Mycobacterium marinum [4]): < 40%

Compound: NN1C(=O)/C(=C/c2ccc(Cl)cc2)SC1=S
IC50 [2]: 5.7 µM

Compound: COc1ccc(/C=C2\SC(=S)NC2=O)cc1
IC50 [3]: > 30 µM
inhibition at 30 µM [1]: < 40%
inhibition (Mycobacterium marinum [4]): < 40%

Compound: O=C1NC(=S)S/C1=C\c1ccccc1F
IC50 [2]: > 30 µM

Compound: C/C(=C1/SC(=S)NC1=O)c1ccccc1
IC50 [2]: 25 µM

Compound: COc1cccc(/C=C2\SC(=S)NC2=O)c1
IC50 [3]: > 30 µM
inhibition at 30 µM [1]: < 40%
inhibition (Mycobacterium marinum [4]): < 40%

Compound: CN1C(=O)/C(=C/c2ccccc2)SC1=S
IC50 [2]: > 30 µM

Compound: O=C1NC(=S)S/C1=C\c1cc(I)c(O)c(I)c1
inhibition at 30 µM [1]: < 40%
inhibition at 30 µM [6]: 46%
inhibition at 30 µM [7]: 52%
inhibition at 30 µM [8]: 104%
Activity [5]: > 80%
Activity (ZR75): Active
Activity [9]: Active
inhibition (Mycobacterium marinum [10]): 40%
inhibition (Mycobacterium marinum [4]): < 40%

Compound: CN1C(=O)/C(=C/c2cccc3ccccc23)SC1=S
IC50 [2]: > 30 µM

Compound: O=C1NC(=S)S/C1=C\c1cccc(F)c1
IC50 [2]: 6.7 µM

Compound: CN1C(=O)/C(=C/Cc2ccccc2)SC1=S
IC50 [2]: > 30 µM

Compound: COc1ccccc1/C=C1\SC(=S)N(C)C1=O
IC50 [2]: > 30 µM

Compound: O=C1NC(=S)S/C1=C\Cc1ccccc1
IC50 [2]: 24.2 µM

Compound: Cc1ccc(/C=C2\SC(=S)NC2=O)cc1
IC50 [3]: > 30 µM
inhibition at 30 µM [1]: < 40%

Compound: O=C1NC(=S)S/C1=C\c1ccc(Br)cc1
IC50 [2]: > 30 µM

Compound: O=C1NC(=S)S/C1=C\c1ccc(O)cc1
IC50 [3]: 16.9 µM
inhibition at 30 µM [1]: < 40%
inhibition (Mycobacterium marinum [4]): < 40%

Compound: Cc1cccc(/C=C2\SC(=S)NC2=O)c1
inhibition at 30 µM [1]: < 40%
inhibition (Mycobacterium marinum [4]): < 40%

Compound: O=C1NC(=S)S/C1=C\c1ccccc1O
inhibition at 30 µM [1]: < 40%
Activity [5]: < 80%
inhibition (Mycobacterium marinum [4]): < 40%

Compound: O=C1NC(=S)S/C1=C\c1ccc(Cl)cc1
IC50 [3]: 4.7 µM
inhibition at 30 µM [1]: < 40%
inhibition (Mycobacterium marinum [4]): < 40%

Compound: NN1C(=O)/C(=C/c2cc(I)c(O)c(I)c2)SC1=S
Activity [5]: < 80%

Compound: CCCCC/C=C1\SC(=S)NC1=O
IC50 [2]: 1.3 µM

Compound: O=C1NC(=S)S/C1=C\c1ccc(Cl)c(Cl)c1
inhibition at 30 µM [1]: < 40%
inhibition (Mycobacterium marinum [4]): < 40%

Compound: C/C(=C1/SC(=S)N(C)C1=O)c1ccccc1
IC50 [2]: > 30 µM

Compound: Cc1ccc(/C=C2\SC(=S)N(C)C2=O)cc1
IC50 [2]: > 30 µM

Compound: NN1C(=O)/C(=C/c2ccccc2O)SC1=S
IC50 [2]: 5.1 µM
Activity [5]: < 80%

Compound: CCCCCCCCC/C=C1\SC(=S)NC1=O
IC50 [2]: 10.2 µM

Compound: CCCCCCC/C=C1\SC(=S)NC1=O
IC50 [2]: 6.8 µM

Compound: O=C1NC(=S)S/C1=C\c1cccc(O)c1
inhibition at 30 µM [1]: < 40%
Activity [5]: < 80%
inhibition (Mycobacterium marinum [4]): < 40%

Compound: O=C1NC(=S)S/C1=C\c1ccc(-c2ccccc2)cc1
inhibition at 30 µM [1]: < 40%
inhibition (Mycobacterium marinum [4]): < 40%

The next lines start with results.

IC50 [2]: 5.5 µM
Compound: CN1C(=O)/C(=C/c2ccc(-c3ccccc3)cc2)SC1=S

IC50 [2]: > 30 µM
Compound: O=C1NC(=S)S/C1=C\c1cccc2ccccc12

IC50 [2]: 4.4 µM
Compound: Cc1ccccc1/C=C1\SC(=S)N(C)C1=O

IC50 [2]: 10.1 µM
Compound: NN1C(=O)/C(=C/c2ccc(O)cc2)SC1=S

IC50 [2]: 0.3 µM
Compound: NN1C(=O)/C(=C/c2ccccc2-c2ccccc2)SC1=S
Activity [5]: < 80%

IC50 [2]: 4.7 µM
Compound: CN1C(=O)/C(=C/c2ccc3ccccc3c2)SC1=S

IC50 [2]: 20.7 µM
Compound: CN1C(=O)/C(=C/c2ccc(F)cc2)SC1=S

IC50 [2]: 9.4 µM
Compound: CN1C(=O)/C(=C/c2ccc(Cl)cc2)SC1=S

IC50 [2]: 1 µM
Compound: COc1ccc(/C=C2\SC(=S)N(C)C2=O)cc1

IC50 [2]: 11.8 µM
Compound: CN1C(=O)/C(=C/c2ccccc2F)SC1=S

IC50 [2]: > 30 µM
Compound: O=C1NC(=O)/C(=C/c2ccc3ccccc3c2)S1

IC50 [2]: 26.9 µM
Compound: O=C1NC(=S)S/C1=C\c1ccc2ccccc2c1

IC50 [2]: 7.3 µM
Compound: CN1C(=O)/C(=C/c2cccc(F)c2)SC1=S

IC50 [2]: > 30 µM
Compound: Cc1cccc(/C=C2\SC(=S)N(C)C2=O)c1

IC50 [2]: 13.6 µM
Compound: COc1cccc(/C=C2\SC(=S)N(C)C2=O)c1

IC50 [2]: 14 µM
Compound: CN1C(=O)/C(=C/c2ccc(O)cc2)SC1=S

IC50 [2]: 10.1 µM
Compound: CN1C(=O)/C(=C/c2ccccc2-c2ccccc2)SC1=S

IC50 [2]: 20.1 µM
Compound: CN1C(=O)/C(=C/c2ccccc2O)SC1=S
